Assay results from US20240148040A1, “METHODS OF REDUCING EXERCISE-INDUCED INJURY OR ENHANCING MUSCLE RECOVERY AFTER EXERCISE” (intrinsic Medicine, Inc., priority 2020, published 2024).

Test system: CEBPB expression in LPS-stimulated THP-1 cells
Test: CEBPB expression in nascent RNAs of LPS-stimulated THP-1 cells (nascent RNA sequencing)
Assay type: cell-based
Conditions: 10 ng/mL LPS and 250 μM 2′FL, CEBPB enhanced and upregulated
Description: THP-1 Cells were treated with 10 ng/mL LPS or 10 ng/mL LPS and 250 μM 2′F and extracted for nascent RNAs at 30 min and 24 hours. The nascent RNAs were sequenced and analyzed as described in Azofeifa et al. (2018), Genome Res. 28: 334-344; the contents of which are expressly incorporated by reference herein.

CC1O[C@@H](OC2[C@H](O[C@H]3C(O)C(O)C(O)O[C@H]3CO)OC(CO)[C@H](O)[C@@H]2O)C(O)[C@@H](O)[C@@H]1O (some centres unmarked) [2′FL, 2′-fucosyllactose]
CEBPB maximum enrichment score (nascent RNAs, 2′FL+LPS treated cells versus LPS alone) (30 min): 40 | CEBPB maximum enrichment score (nascent RNAs, 2′FL+LPS treated cells versus LPS alone) (24 hours): 20
